Patent publication US7662810B2, “2-arylmethylazetidine carbapenem derivatives and preparation thereof” (Korea Research Institute of Chemical Technology, priority 2004, dated 2010)
In brackets after ≈: the same amount, converted by molar mass. Blank lines part the entries; values can stand above or below the molecule they belong to.

Tests used:
[1] = tested on: Staphylococcus aureus 256E; assay: Measurement of Minimum Inhibitory Concentration (MIC), MRSA; assay type: cell-based
Experimental: (§1) The antibacterial activities of the compounds of the present invention prepared in the above Examples against Gram-positive and Gram-negative bacteria, MRSA and QRS were tested as follows.
(§2) Respective bacterial strains were inoculated into 3 ml of Fleisch extract broth (beef extract 1%, peptone 1%, NaCl 0.3%, Na2HPO4.12H2O 0.2%, pH 7.4-7.5. 10% horse serum was supplemented for Streptococcus pyogenes and S. facium) and cultured on a shaking incubator at 37° C. for 18 hours. About 10^4 CFU/spot of the cultured bacterial strains were inoculated onto Müller-Hinton agar plates containing serial double dilutions (final concentration of 0.002 to 100 μg/ml) of a test compound employing an automatic inoculator (Dynatech, USA), and incubated at 37° C. for 18 hours. When the incubation was completed, the minimum inhibitory concentration was determined. Meropenem (Yuhan corporation, Korea) and vancomycin (Cj Inco., Korea) were used as standard antibiotics, respectively.

[2] = tested on: Staphylococcus aureus 692E; assay: as above; assay type: cell-based
Experimental: as §1, §2

[3] = tested on: Staphylococcus aureus 693E; assay: as above; assay type: cell-based
Experimental: as §1, §2

[4] = tested on: Staphylococcus aureus 208E; assay: as above; assay type: cell-based
Experimental: as §1, §2

[5] = tested on: Staphylococcus aureus 121E; assay: as above; assay type: cell-based
Experimental: as §1, §2

[6] = tested on: Staphylococcus aureus 694E; assay: as above; assay type: cell-based
Experimental: as §1, §2

[7] = tested on: Staphylococcus aureus 88E; assay: as above; assay type: cell-based
Experimental: as §1, §2

[8] = tested on: Staphylococcus aureus 697E; assay: as above; assay type: cell-based
Experimental: as §1, §2

[9] = tested on: Staphylococcus aureus 695E; assay: as above; assay type: cell-based
Experimental: as §1, §2

[10] = tested on: Staphylococcus aureus 690E; assay: as above; assay type: cell-based
Experimental: as §1, §2

[11] = tested on: Salmonella typhimurium 179; assay: Measurement of Minimum Inhibitory Concentration (MIC); assay type: cell-based
Experimental: as §1, §2

Escherichia coli DC 2 = assay: as above; assay type: cell-based
Experimental: as §1, §2

[12] = tested on: Klebsiella aerogenes 1522 E; assay: as above; assay type: cell-based
Experimental: as §1, §2

Escherichia coli 078 = assay: as above; assay type: cell-based
Experimental: as §1, §2

[13] = tested on: Enterobacter cloacae P 99; assay: as above; assay type: cell-based
Experimental: as §1, §2

[14] = tested on: Staphylococcus pyogenes 308A; assay: as above; assay type: cell-based
Experimental: as §1, §2

Escherichia coli TEM = assay: as above; assay type: cell-based
Experimental: as §1, §2

Escherichia coli 1507 E = assay: as above; assay type: cell-based
Experimental: as §1, §2

[15] = tested on: Staphylococcus faecium MD 8b; assay: as above; assay type: cell-based
Experimental: as §1, §2

[16] = tested on: Staphylococcus aureus 503; assay: as above; assay type: cell-based
Experimental: as §1, §2

[17] = tested on: Enterobacter cloacae 1321 E; assay: as above; assay type: cell-based
Experimental: as §1, §2

[18] = tested on: Staphylococcus aureus 285; assay: as above; assay type: cell-based
Experimental: as §1, §2

[19] = tested on: Klebsiella oxytoca 1082 E; assay: as above; assay type: cell-based
Experimental: as §1, §2

Escherichia coli DC 0 = assay: as above; assay type: cell-based
Experimental: as §1, §2

[20] = tested on: Staphylococcus pyogenes 77A; assay: as above; assay type: cell-based
Experimental: as §1, §2

[21] = tested on: Staphylococcus epidermidis 178; assay: Measurement of Minimum Inhibitory Concentration (MIC), QRS; assay type: cell-based
Experimental: as §1, §2

[22] = tested on: Staphylococcus aureus 241; assay: as above; assay type: cell-based
Experimental: as §1, §2

[23] = tested on: Staphylococcus epidermidis 291; assay: as above; assay type: cell-based
Experimental: as §1, §2

[24] = tested on: Staphylococcus aureus 179; assay: as above; assay type: cell-based
Experimental: as §1, §2

[25] = tested on: Staphylococcus aureus 293; assay: as above; assay type: cell-based
Experimental: as §1, §2

[26] = target: T1, Dihydropeptidase-1 (DHP-1) (Sus scrofa, UniProt P22412)
T1 sequence (P22412 17-384): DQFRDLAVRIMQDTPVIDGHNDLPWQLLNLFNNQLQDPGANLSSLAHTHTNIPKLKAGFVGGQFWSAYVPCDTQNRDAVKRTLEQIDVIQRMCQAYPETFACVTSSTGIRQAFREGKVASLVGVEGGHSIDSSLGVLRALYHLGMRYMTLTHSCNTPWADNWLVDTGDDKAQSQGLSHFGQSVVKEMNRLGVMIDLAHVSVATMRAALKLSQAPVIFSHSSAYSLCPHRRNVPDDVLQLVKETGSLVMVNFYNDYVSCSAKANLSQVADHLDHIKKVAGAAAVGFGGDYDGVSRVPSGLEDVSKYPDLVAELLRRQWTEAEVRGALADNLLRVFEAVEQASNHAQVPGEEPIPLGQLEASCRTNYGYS
Experimental: The rate of degradation of the inventive compounds by the action of DHP-1 enzyme extracted from hog kidney was determined as follow.
0.2 unit of the enzyme was allowed to react with the above solution at 30° C., and the absorbance at 299 nm of the remaining medicament was measured to determine the degradation rate. The absorbance was measured at 0, 0.5, 1, 2 and 4 hour points, and T1/2, the time when the concentration of the medicament become the half, was obtained by regression analysis.

SMILES: CN[C@H](CC(C)C)C(=O)N[C@H]1C(=O)N[C@@H](CC(N)=O)C(=O)N[C@H]2C(=O)N[C@H]3C(=O)N[C@H](C(=O)N[C@H](C(=O)O)c4cc(O)cc(O)c4-c4cc3ccc4O)[C@H](O)c3ccc(c(Cl)c3)Oc3cc2cc(c3O[C@@H]2O[C@H](CO)[C@@H](O)[C@H](O)[C@H]2O[C@H]2C[C@](C)(N)[C@H](O)[C@H](C)O2)Oc2ccc(cc2Cl)[C@H]1O [Vancomycin, vancomycin, reference compound]
MIC ([1]; Staphylococcus aureus): 0.781 µg/mL (≈ 0.539 µM)
MIC ([2]; Staphylococcus aureus): 0.781 µg/mL (≈ 0.539 µM)
MIC ([3]; Staphylococcus aureus): 1.56 µg/mL (≈ 1.08 µM)
MIC ([4]; Staphylococcus aureus): 0.781 µg/mL (≈ 0.539 µM)
MIC ([5]; Staphylococcus aureus): 0.781 µg/mL (≈ 0.539 µM)
MIC ([6]; Staphylococcus aureus): 1.56 µg/mL (≈ 1.08 µM)
MIC ([7]; Staphylococcus aureus): 0.781 µg/mL (≈ 0.539 µM)
MIC ([8]; Staphylococcus aureus): 0.781 µg/mL (≈ 0.539 µM)
MIC ([9]; Staphylococcus aureus): 1.56 µg/mL (≈ 1.08 µM)
MIC ([10]; Staphylococcus aureus): 0.391 µg/mL (≈ 0.27 µM)
MIC ([11]; Salmonella enterica, TYPHIMURIUM): 100 µg/mL (≈ 69 µM)
MIC (Escherichia coli DC 2): 50 µg/mL (≈ 34.5 µM)
MIC [12]: 100 µg/mL (≈ 69 µM)
MIC (Escherichia coli 078): 100 µg/mL (≈ 69 µM)
MIC [13]: 100 µg/mL (≈ 69 µM)
MIC ([14]; Staphylococcus aureus, 308A): 0.781 µg/mL (≈ 0.539 µM)
MIC (Escherichia coli TEM; Escherichia coli): 100 µg/mL (≈ 69 µM)
MIC (Escherichia coli 1507 E): 100 µg/mL (≈ 69 µM)
MIC ([15]; Staphylococcus, MD8B): 0.391 µg/mL (≈ 0.27 µM)
MIC [16]: 0.391 µg/mL (≈ 0.27 µM)
MIC [17]: 100 µg/mL (≈ 69 µM)
MIC [18]: 0.391 µg/mL (≈ 0.27 µM)
MIC [19]: 100 µg/mL (≈ 69 µM)
MIC (Escherichia coli DC 0): 100 µg/mL (≈ 69 µM)
MIC ([20]; Staphylococcus aureus, 77A): 0.391 µg/mL (≈ 0.27 µM)
MIC ([21]; Staphylococcus epidermidis, 178): 1.56 µg/mL (≈ 1.08 µM)
MIC ([22]; Staphylococcus aureus, 241): 0.781 µg/mL (≈ 0.539 µM)
MIC ([23]; Staphylococcus epidermidis, 291): 1.56 µg/mL (≈ 1.08 µM)
MIC ([24]; Staphylococcus aureus, 179): 0.781 µg/mL (≈ 0.539 µM)
MIC ([25]; Staphylococcus aureus, 293): 0.781 µg/mL (≈ 0.539 µM)

SMILES: C[C@@H](O)[C@H]1C(=O)N2C(C(=O)[O-])=C(SC3CN(Cc4ccc(Cl)cc4)C3)[C@H](C)[C@H]12.[K+] [Exam. 18, Potassium(1R,5S,6S)-2-[1-(4-chlorobenzyl)-azetidine-3-yl-thio]-6-[(1R)-1-hydroxylethyl]-1-methylcarbapen-2-em-3-carboxylate]
Relative T1/2 [26]: 0.84
T1/2 (time when the concentration of the medicament become the half) [26]: 15.36

SMILES: C[C@@H](O)[C@H]1C(=O)N2C(C(=O)[O-])=C(SC3CN(Cc4ccc(F)cc4)C3)[C@H](C)[C@H]12.[K+] [Exam. 19, Potassium(1R,5S,6S)-2-[1-(4-fluorobenzyl)-azetidine-3-yl-thio]-6-[(1R)-1-hydroxylethyl]-1-methylcarbapen-2-em-3-carboxylate]
T1/2 (time when the concentration of the medicament become the half) [26]: 28.16
MIC ([1]; Staphylococcus aureus 256E): 0.025 µg/mL
MIC ([2]; Staphylococcus aureus 692E): 0.025 µg/mL
MIC ([3]; Staphylococcus aureus 693E): 3.125 µg/mL
MIC ([4]; Staphylococcus aureus 208E): 0.025 µg/mL
MIC ([5]; Staphylococcus aureus 121E): 0.049 µg/mL
MIC ([6]; Staphylococcus aureus 694E): 3.125 µg/mL
MIC ([7]; Staphylococcus aureus 88E): 0.049 µg/mL
MIC ([8]; Staphylococcus aureus 697E): 0.049 µg/mL
MIC ([9]; Staphylococcus aureus 695E): 0.195 µg/mL
MIC ([10]; Staphylococcus aureus 690E): 0.391 µg/mL
MIC ([11]; Salmonella typhimurium 179): 0.049 µg/mL
MIC (Escherichia coli DC 2): 0.025 µg/mL
MIC [12]: 0.098 µg/mL
MIC (Escherichia coli 078): 0.025 µg/mL
MIC [13]: 0.098 µg/mL
MIC ([14]; Staphylococcus pyogenes 308A): 0.002 µg/mL
MIC (Escherichia coli TEM; Escherichia coli TEM): 0.049 µg/mL
MIC (Escherichia coli 1507 E): 0.049 µg/mL
MIC ([15]; Staphylococcus faecium MD 8b): 1.563 µg/mL
MIC [16]: 0.013 µg/mL
MIC [17]: 0.049 µg/mL
MIC [18]: 0.025 µg/mL
MIC [19]: 0.049 µg/mL
MIC (Escherichia coli DC 0): 0.098 µg/mL
MIC ([20]; Staphylococcus pyogenes 77A): 0.002 µg/mL
MIC ([21]; QRS, Staphylococcus epidermidis 178): 0.195 µg/mL
MIC ([22]; QRS, Staphylococcus aureus 241): 0.049 µg/mL
MIC ([23]; QRS, Staphylococcus epidermidis 291): 0.391 µg/mL
MIC ([24]; QRS, Staphylococcus aureus 179): 0.049 µg/mL
MIC ([25]; QRS, Staphylococcus aureus 293): 0.195 µg/mL

Further lines, results first:

Relative T1/2 [26]: 1.54
T1/2 (time when the concentration of the medicament become the half) [26]: 28.16
SMILES: COc1cccc(CN2CC(SC3=C(C(=O)[O-])N4C(=O)[C@H]([C@@H](C)O)[C@H]4[C@H]3C)C2)c1.[K+] [Exam. 15, Potassium(1R,5S,6S)-2-[1-(3-methoxybenzyl)-azetidine-3-yl-thio]-6-[(1R)-1-hydroxylethyl]-1-methylcarbapen-2-em-3-carboxylate]

Relative T1/2 [26]: 0.88
T1/2 (time when the concentration of the medicament become the half) [26]: 16.03
SMILES: C[C@@H](O)[C@H]1C(=O)N2C(C(=O)[O-])=C(SC3CN(Cc4cccc(C(F)(F)F)c4)C3)[C@H](C)[C@H]12.[K+] [Exam. 20, Potassium(1R,5S,6S)-2-[1-(3-trifluoromethylbenzyl)-azetidine-3-yl-thio]-6-[(1R)-1-hydroxylethyl]-1-methylcarbapen-2-em-3-carboxylate]
